Results: patent US20210379153A1, “COMBINATION THERAPIES COMPRISING SIRP ALPHA-BASED CHIMERIC PROTEINS” (Shattuck Labs, Inc., priority 2018, published 2021)
Several values for one entry are separate records, joined by “and”; a condition that tells them apart may be missing. Equal entries are not always repeated.

Key:
tumors [1] = assay: In vivo tumor model, SIRPα-Fc-LIGHT with anti-PD-1 (Example 15); design: species or system mice; details: combination with anti-PD-1 antibody
Description: The in vivo ability of combinations of the SIRPα-Fc-LIGHT chimeric protein with anti-PD-1 antibodies to target and treat tumors was determined. (FIG. 26A and FIG. 26B) FIG. 26C and FIG. 26D include data relevant to the graphs of FIG. 26A and FIG. 26B.

tumors [2] = assay: In vivo tumor model, SIRPα-Fc-OX40L with checkpoint antibodies (Example 14); design: species or system mice; details: chimeric protein alone
Description: The in vivo ability of combinations of the SIRPα-Fc-OX40L chimeric protein with anti-CTLA-4 antibodies or the SIRPα-Fc-OX40L chimeric protein with anti-PD-1 antibodies to target and treat tumors was determined.

[3] = tested on: IRF-inducible ISG reporter in RAW264.7 cells; assay: RAW264.7-ISG interferon reporter cells co-cultured with A20 lymphoma cells; type: cell-based, mouse; details: monotherapy; 50 mg/mL proteins, 1 mg/mL anti-mCD20; 24 hours
Description: FIG. 8D: Macrophage:Toledo lymphoma co-cultures were harvested 2 hours into phagocytosis assays in the presence of rituximab ([…]), SIRPα-Fc-CD40L ([…]), or the combination of both agents. Macrophages were isolated by CD11b+ FACS, RNA was prepared, cDNA synthesized, and gene expression (IFNa1, IFNb1, CD80, and CD86) assessed by qRT-PCR. Fold change was calculated using DDCT and values obtained from the housekeeping gene ACTB, and the corresponding values from untreated samples. […] After 2 hours, co-cultures were isolated from tissue culture vessels and were stained with a fluorescently conjugated CD11b antibody to discriminate macrophages. Cells were then assessed by flow cytometry for the co-localization of fluorescent signal from both cells types. […] After 24-hours type I interferon induced luminescence was assessed using a luminometer. The maximum luminescence (RLU) from each experiment was set to 1, and all other samples were normalized accordingly. […]
Additionally, a macrophage reporter system was used to detect activation. […] After 24 hours, culture supernatant was collected and assessed for luciferase activity, which would indicate activation of a type I interferon response in the RAW-ISG reporter cells. […]

[4] = tested on: CD8+ T cell-depleted PBMC; assay: Proliferation of CD8+ T cell-depleted PBMC ([3H]-thymidine); type: cell-based, human; details: 0.3, 3, 30, or 300 nM; 7-day culture; 33-50 donors
Description: (§1) Here, proliferation was assessed via [^3H]-Thymidine incorporation on days 5, 6, and 7. The order of samples (in triplicate) along the X-axis is media only, KLH, Exenatide, 0.3 nm SIRPα-Fc-CD40L, 3 nm SIRPα-Fc-CD40L, 30 nm SIRPα-Fc-CD40L and 300 nm SIRPα-Fc-CD40L. […] Here, proliferation was assessed by ELISpot. The order of samples (in triplicate) along the X-axis is media only, KLH, Exenatide, 0.3 nm SIRPα-Fc-CD40L, 3 nm SIRPα-Fc-CD40L, 30 nm SIRPα-Fc-CD40L and 300 nm SIRPα-Fc-CD40L.
(§2) The observation that SIRPα-Fc-CD40L stimulated CD40 signaling prompted investigation of other cellular functions that depend upon CD40 signaling. CD8+ T cell-depleted PBMC were isolated from a total of 33-50 different human donors and cultured in the presence of a dose-titration of hSIRPα-Fc-CD40L (FIG. 6A and FIG. 6B).

FcγR-IIIb = FcγR-IIIb (Homo sapiens, UniProt O75015); assay: SPR binding to Fc receptor FcγR-IIIb
Source text: (§3) The extracellular domain (ECD) of SIRPα and the ECD of CD40L were fused via an antibody Fc domain to generate SIRPαECD-Fc-CD40LECD chimeric proteins. When human proteins were used, the chimeric protein is referred to as hSIRPα-Fc-CD40L; when murine proteins were used, the chimeric protein is referred to as and mSIRPα-Fc-CD40L. Generically, the chimeric protein is referred to as SIRPα-Fc-CD40L. […] Mammalian cells were then transfected with the hSIRPα-Fc-CD40L expressing construct, and the secreted protein was purified from conditioned media by affinity chromatography. The purified protein was then analyzed for the presence of each individual domain by Western blotting using anti-SIRPα, anti-Fc, and anti-CD40L antibodies (FIG. 3A, bottom). […] The reduced and deglycosylated form of the protein migrated at the predicted monomeric molecular weight of 90.1 kDa. […] Next, binding affinities for SIRPα-Fc-CD40L to recombinant CD47, CD40, or Fc receptors were evaluated by surface plasmon resonance (SPR). […] Finally, to confirm that SIRPα-Fc-CD40L interacted with native CD47 and CD40 in a similar manner to recombinant CD47 and CD40, CHOK1-hCD47 and CHOK1-hCD40 reporter cell lines were developed (FIG. 3F). […] A functional ELISA evaluated whether SIRPα-Fc-CD40L could outcompete a commercially available single-sided SIRPα-Fc control for binding to recombinant CD47 (FIG. 3H).

FcγR-Ia = FcγR-Ia (Homo sapiens, UniProt P12314); assay: SPR binding to Fc receptor FcγR-Ia
Source text: Scale is shown and yellow arrows correspond with each identified monomer. A schematic of the hexamer species is shown to the right, depicting dimerization of the Fc domain and trimerization of the CD40L domain. […] Recombinant hSIRPα-Fc, hCD40L-Fc, and hIgG1 were used as positive controls. […] In both panels, the CHOK1 Parental is on the left and the CHOK1/hCD47 is on the right. […] For both graphs, the CHOK1 Parental is on the bottom. […] In this figure, the control is the top curve, the SIRPα-Fc-CD40L is the middle curve, and the anti-CD47 is the bottom curve.
The extracellular domain (ECD) of SIRPα and the ECD of CD40L were fused via an antibody Fc domain to generate SIRPαECD-Fc-CD40LECD chimeric proteins. When human proteins were used, the chimeric protein is referred to as hSIRPα-Fc-CD40L; when murine proteins were used, the chimeric protein is referred to as and mSIRPα-Fc-CD40L. […] The purified protein was then analyzed for the presence of each individual domain by Western blotting using anti-SIRPα, anti-Fc, and anti-CD40L antibodies (FIG. 3A, bottom). […] Next, binding affinities for SIRPα-Fc-CD40L to recombinant CD47, CD40, or Fc receptors were evaluated by surface plasmon resonance (SPR). […] A functional ELISA evaluated whether SIRPα-Fc-CD40L could outcompete a commercially available single-sided SIRPα-Fc control for binding to recombinant CD47 (FIG. 3H).

[5] = Repeat-dose safety and activity study in cynomolgus macaques; type: in vivo; details: IV infusion weekly for five weeks; 0.1, 1, 10 and 40 mg/kg
Description: FIG. 21 is a graph showing cynomolgus macaques that were treated with vehicle, or 0.1, 1, 10, and 40 mg/kg of SIRPα-Fc-CD40L. Blood chemistry analysis assessed peripheral erythrocyte counts, hemoglobin levels, and hematocrit. In addition, the fold-change in lymphocyte count from pre-dose to 24 hours post-dose is shown.
The experiments of this example tested the safety and activity of the human SIRPα-Fc-CD40L chimeric protein following repeat doses in cynomolgus macaques. Briefly, naïve cynomolgus macaques were administered the human SIRPα-Fc-CD40L chimeric protein by intravenous infusion every week, for five consecutive weeks, at doses of 0.1, 1, 10 and 40 mg/kg. Standard hematology and clinical chemistry parameters were collected before and after each dose.
Receptor occupancy was evaluated on circulating CD40+ lymphocytes.

[6] = tested on: CD8+ T cell-depleted PBMC; assay: IL-2 ELISpot of CD8+ T cell-depleted PBMC; type: cell-based, human; details: day 8 of the culture
Description: as §1, §2

FcγR-IIb = biological target: T1, FcγR-IIb (Homo sapiens, UniProt P31994); assay: SPR binding to Fc receptor FcγR-IIb
T1 sequence (P31994 43-310): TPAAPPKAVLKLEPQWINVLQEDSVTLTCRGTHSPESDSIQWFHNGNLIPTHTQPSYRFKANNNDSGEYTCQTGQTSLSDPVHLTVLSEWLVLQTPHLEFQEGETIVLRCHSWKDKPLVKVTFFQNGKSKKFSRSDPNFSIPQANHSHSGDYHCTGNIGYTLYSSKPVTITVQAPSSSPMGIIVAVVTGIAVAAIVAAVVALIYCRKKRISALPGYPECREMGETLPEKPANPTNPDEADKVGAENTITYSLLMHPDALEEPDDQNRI
Source text: as §3

[7] = biological target: T2, recombinant mouse CD47 (mouse) (UniProt Q61735); assay: dual ELISA: coat mCD47-Fc, detect mCD40-His, tertiary anti-his-HRP, OD450
T2 sequence (looked up): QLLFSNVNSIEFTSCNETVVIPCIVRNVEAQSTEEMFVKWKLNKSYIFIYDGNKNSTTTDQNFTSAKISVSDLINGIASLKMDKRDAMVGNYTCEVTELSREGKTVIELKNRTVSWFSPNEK

[8] = tested on: IFNα1, IFNβ1, CD80 and CD86 expression in macrophages; assay: qRT-PCR of macrophages sorted from macrophage:Toledo lymphoma co-cultures; type: cell-based, human; design: macrophage activation and type I interferon gene expression: dose or concentration left out as unconfirmed; details: monotherapy; 2 hours
Description: FIG. 8D: Macrophage:Toledo lymphoma co-cultures were harvested 2 hours into phagocytosis assays in the presence of rituximab ([…]), SIRPα-Fc-CD40L ([…]), or the combination of both agents. Macrophages were isolated by CD11b+ FACS, RNA was prepared, cDNA synthesized, and gene expression (IFNa1, IFNb1, CD80, and CD86) assessed by qRT-PCR. Fold change was calculated using DDCT and values obtained from the housekeeping gene ACTB, and the corresponding values from untreated samples. […] After 2 hours, co-cultures were isolated from tissue culture vessels and were stained with a fluorescently conjugated CD11b antibody to discriminate macrophages. Cells were then assessed by flow cytometry for the co-localization of fluorescent signal from both cells types. Identical assays were set up where macrophages were pre-incubated for 1 hour with 20 μg/mL of a commercially available Fc block cocktail or with 20 μg/mL of a CD40 blocking antibody or with 5 μg/mL of a calreticulin blocking peptide. FIG. 8G: RAW 264.7-Lucia ISG cells were cultured with A20 lymphoma cells in the presence of […] of mSIRPα-Fc-CD40L, recombinant Fc-mCD40L, mSIRPα-Fc, or their combination, 1 mg/mL anti-mCD20, or the combination of mSIRPα-Fc-CD40L and anti-mCD20. After 24-hours type I interferon induced luminescence was assessed using a luminometer. The maximum luminescence (RLU) from each experiment was set to 1, and all other samples were normalized accordingly. Values from repeat experiments are shown.
RNA was prepared from macrophages isolated using fluorescent activated cell sorting (FACS) from SIRPα-Fc-CD40L/Rituximab treated co-cultures macrophages and Toledo lymphoma cells. The RNA was assessed by qRT-PCR for expression of IFNα1 and IFNβ1, and the macrophage activation markers CD80 and CD86.

Sequence of FcγR-IIIb (O75015 17-200): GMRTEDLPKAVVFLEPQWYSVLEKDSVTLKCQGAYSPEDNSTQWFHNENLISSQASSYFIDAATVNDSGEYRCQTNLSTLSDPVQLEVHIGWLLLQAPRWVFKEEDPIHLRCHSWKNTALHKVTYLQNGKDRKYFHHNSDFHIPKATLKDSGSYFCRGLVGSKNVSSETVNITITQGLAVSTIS
Sequence of FcγR-Ia (P12314 16-374): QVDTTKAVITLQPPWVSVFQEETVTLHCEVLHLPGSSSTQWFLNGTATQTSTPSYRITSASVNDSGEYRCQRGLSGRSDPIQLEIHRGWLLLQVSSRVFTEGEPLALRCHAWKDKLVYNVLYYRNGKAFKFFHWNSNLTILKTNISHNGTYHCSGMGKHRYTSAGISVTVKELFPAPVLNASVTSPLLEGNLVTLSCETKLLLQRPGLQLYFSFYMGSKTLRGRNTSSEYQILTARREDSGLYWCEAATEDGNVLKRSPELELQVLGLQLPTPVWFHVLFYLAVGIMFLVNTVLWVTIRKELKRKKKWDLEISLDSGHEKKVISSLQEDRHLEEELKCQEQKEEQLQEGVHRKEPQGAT

Question: Which results are given for “SIRPα(CD172a)-Fc-LIGHT: ECD of SIRPα, hinge-CH2-CH3 Fc linker and ECD of LIGHT (SEQ ID NO: 63)”?
Answer: survival (tumors [1]): any survivors by the twenty-fifth day; tumor size (tumors [1]): most effective in reducing tumor size; rejection of secondary tumor challenge (tumors [1]; no additional treatment): 66.6%

Question: Which results are given for “SIRPα(CD172a)-Fc-OX40L: ECD of SIRPα and ECD of OX40L fused via an antibody Fc domain (SEQ ID NO: 61)”?
Answer: survival (tumors [2]): any survivors by the sixteenth day; tumor size (tumors [2]): effective in reducing tumor size

Question: Which “interferon gene-driven luciferase activity (type I IFN response)” value [3] does the source give for “SIRPα-Fc: recombinant single-sided SIRPα-Fc protein [reference compound]” here?
Answer: Its value is “no significant signal”.

Question: Which “proliferation of human PBMC” value [4] does the source give for “hSIRPα-Fc-CD40L: chimeric protein: ECD of human SIRPα fused via an antibody Fc domain to ECD of human CD40L (SEQ ID NO: 60)” here?
Answer: Its value is “dose-dependent proliferation”.

Question: What about the binding (FcγR-IIIb) of the same substance?
Answer: Its binding is “undetectable binding”.

Question: And the binding (FcγR-Ia)?
Answer: The binding was “undetectable binding”.

Question: And the hemolysis [5]?
Answer: The hemolysis was “no evidence”.

Question: And the thrombocytopenia [5]?
Answer: The thrombocytopenia was “no evidence”.

Question: What about the “number of IL-2-secreting PBMC” value [6] of the same substance?
Answer: Its value is “dose-dependent increase”.

Question: What about the binding (FcγR-IIb) of the same substance?
Answer: The binding was “undetectable binding”.

Question: Which EC50 [7] does the source give for “mSIRPα-Fc-CD40L chimeric protein (murine SIRPα ECD - Fc - murine CD40L ECD) (from UniProt P97797 32-373; P27548 47-260) (Fc fusion)” here?
Answer: The EC50 was 7.37 nM and 8.73 nM.

Question: With “rituximab: anti-CD20 antibody [reference compound]” as the substance, how does the “macrophage activation and type I interferon gene expression” value [8] read?
Answer: The value was “induced macrophage activation and the expression of type I interferon genes”.
